Common to all, as to assay type: functional
The test system of experiment [1] is Candida albicans. Put plainly: Antifungal activity against Candida albicans SC5314 assessed as inhibition of fungal growth by CLSI M27-A3 guidelines based method.
Experiment [2] deals with Candida albicans. Put plainly: Antifungal activity against Candida albicans GIM 2.194 assessed as inhibition of fungal growth by CLSI M27-A3 guidelines based method.
A further experiment relates to Candida tropicalis. Put plainly: Antifungal activity against Candida tropicalis GIM 2.183 assessed as inhibition of fungal growth by CLSI M27-A3 guidelines based method.
The next experiment relates to Candida parapsilosis. Put plainly: Antifungal activity against Candida parapsilosis GIM 2.190 assessed as inhibition of fungal growth by CLSI M27-A3 guidelines based method. To be noted: Lodderomyces parapsilosis.
The next experiment concerns Nakaseomyces glabratus. Put plainly: Antifungal activity against Candida glabrata assessed as inhibition of fungal growth by CLSI M27-A3 guidelines based method.
The next experiment has as its system Pichia kudriavzevii. Put plainly: Antifungal activity against Candida krusei GIM 2.1 assessed as inhibition of fungal growth by CLSI M27-A3 guidelines based method.
A further experiment relates to Cryptococcus neoformans. Put plainly: Antifungal activity against Cryptococcus neoformans CGMCC 2.3161 assessed as inhibition of fungal growth by CLSI M27-A3 guidelines based method.
The test system of another experiment is Aspergillus fumigatus. Put plainly: Antifungal activity against Aspergillus fumigatus cgmcc 3.7795 assessed as inhibition of fungal growth by CLSI M27-A3 guidelines based method.
Experiment [3] deals with Candida albicans. Put plainly: Antifungal activity against fluconazole-resistant Candida albicans CaR assessed as inhibition of fungal growth by CLSI M27-A3 guidelines based method.
In experiment [4] the test system is Candida albicans. Put plainly: Antifungal activity against fluconazole and iodiconazole resistant Candida albicans clinical isolate 17# assessed as inhibition of fungal growth by CLSI M27-A3 guidelines based method.
In experiment [5] the test system is Candida albicans. Put plainly: Antifungal activity against fluconazole-resistant Candida albicans clinical isolate 901 assessed as inhibition of fungal growth by CLSI M27-A3 guidelines based method.
Experiment [6] has as its system Candida albicans. Put plainly: Antifungal activity against fluconazole-resistant Candida albicans clinical isolate 904 assessed as inhibition of fungal growth by CLSI M27-A3 guidelines based method.
Experiment [7] has as its system Candida albicans. Put plainly: Antifungal activity against fluconazole-resistant Candida albicans clinical isolate 632 assessed as inhibition of fungal growth by CLSI M27-A3 guidelines based method.
The test system of experiment [8] is Candida albicans. Put plainly: Antifungal activity against fluconazole-resistant Candida albicans clinical isolate 100 assessed as inhibition of fungal growth by CLSI M27-A3 guidelines based method.
In experiment [9] the test system is Candida albicans. Put plainly: Antifungal activity against fluconazole-resistant Candida albicans clinical isolate 103 assessed as inhibition of fungal growth by CLSI M27-A3 guidelines based method.
In experiment [10] the test system is Candida albicans. Put plainly: Antifungal activity against fluconazole-resistant Candida albicans clinical isolate 311 assessed as inhibition of fungal growth by CLSI M27-A3 guidelines based method.

Results on 5 molecules are retold here after ChEMBL document CHEMBL6092180 (Eur J Med Chem, 2024).

Values after ≈ are worked out from the molar mass of the structure shown.

Broadly, the MIC80 is the lowest concentration that inhibits either 80% of growth or 80% of the strains tested, depending on the study.

Consider `C[C@@H](N(C)Cc1ccc(C#Cc2ccc([N+](=O)[O-])cc2)cc1)[C@](O)(Cn1cncn1)c1ccc(F)cc1F`, for which the MIC80 was determined as 0.013 µg/mL (≈ 0.0251 µM) in the experiment with Candida albicans [1]; 0.006 µg/mL (≈ 0.0116 µM) with Candida albicans [2]; 0.006 µg/mL (≈ 0.0116 µM) in the experiment with Candida tropicalis; 0.006 µg/mL (≈ 0.0116 µM) in the experiment on Candida parapsilosis; 0.01 µg/mL (≈ 0.0193 µM) in the experiment on Nakaseomyces glabratus; 0.01 µg/mL (≈ 0.0193 µM) in the experiment on Pichia kudriavzevii. In addition, the MIC80 in the experiment with Cryptococcus neoformans was determined as 0.013 µg/mL (≈ 0.0251 µM); in the experiment with Aspergillus fumigatus, 0.05 µg/mL (≈ 0.0966 µM); with Candida albicans [3], 0.25 µg/mL (≈ 0.483 µM); with Candida albicans [4], 0.5 µg/mL (≈ 0.966 µM); in the experiment with Candida albicans [5], 8 µg/mL (≈ 15.5 µM); in the experiment with Candida albicans [6], 32 µg/mL (≈ 61.8 µM). In addition, the MIC80 was determined as 4 µg/mL (≈ 7.73 µM) in the experiment with Candida albicans [7], 16 µg/mL (≈ 30.9 µM) in the experiment with Candida albicans [8], 8 µg/mL (≈ 15.5 µM) in the experiment on Candida albicans [9] and 16 µg/mL (≈ 30.9 µM) in the experiment with Candida albicans [10].
For the molecule `C[C@@H](N(C)Cc1ccc(C#Cc2ccc(F)c(F)c2)cc1)[C@](O)(Cn1cncn1)c1ccc(F)cc1F`, the MIC80 in the experiment with Candida albicans [1] is 0.013 µg/mL (≈ 0.0256 µM); with Candida albicans [2] it was 0.025 µg/mL (≈ 0.0492 µM); in the experiment with Candida tropicalis it was 0.006 µg/mL (≈ 0.0118 µM); in the experiment with Candida parapsilosis, 0.006 µg/mL (≈ 0.0118 µM); in the experiment on Nakaseomyces glabratus, 0.05 µg/mL (≈ 0.0983 µM); in the experiment with Pichia kudriavzevii, 0.03 µg/mL (≈ 0.059 µM). Moreover, the MIC80 with Cryptococcus neoformans is 0.05 µg/mL (≈ 0.0983 µM); in the experiment with Aspergillus fumigatus it was 0.1 µg/mL (≈ 0.197 µM); in the experiment on Candida albicans [3], 0.25 µg/mL (≈ 0.492 µM); in the experiment on Candida albicans [4], 0.5 µg/mL (≈ 0.983 µM); in the experiment with Candida albicans [5], 8 µg/mL (≈ 15.7 µM); with Candida albicans [6], 16 µg/mL (≈ 31.5 µM). For the same molecule, the MIC80 in the experiment with Candida albicans [7] turned out to be 4 µg/mL (≈ 7.87 µM); with Candida albicans [8], 8 µg/mL (≈ 15.7 µM); with Candida albicans [9], 8 µg/mL (≈ 15.7 µM); in the experiment on Candida albicans [10], 8 µg/mL (≈ 15.7 µM).
`Cc1ccc(C#Cc2ccc(CN(C)[C@H](C)[C@](O)(Cn3cncn3)c3ccc(F)cc3F)cc2)cc1`: the MIC80 with Candida albicans [1] is 0.025 µg/mL (≈ 0.0514 µM); in the experiment on Candida albicans [2], 0.013 µg/mL (≈ 0.0267 µM); in the experiment with Candida tropicalis it was 0.006 µg/mL (≈ 0.0123 µM); in the experiment with Candida parapsilosis it was 0.006 µg/mL (≈ 0.0123 µM); with Nakaseomyces glabratus it was 0.01 µg/mL (≈ 0.0206 µM); with Pichia kudriavzevii, 0.03 µg/mL (≈ 0.0617 µM). Besides, the MIC80 in the experiment on Cryptococcus neoformans is 0.025 µg/mL (≈ 0.0514 µM); in the experiment with Aspergillus fumigatus, 0.1 µg/mL (≈ 0.206 µM); in the experiment on Candida albicans [3] it was 0.25 µg/mL (≈ 0.514 µM); in the experiment on Candida albicans [4], 0.5 µg/mL (≈ 1.03 µM); with Candida albicans [5], 8 µg/mL (≈ 16.4 µM); in the experiment with Candida albicans [6] it was 32 µg/mL (≈ 65.8 µM). The MIC80 with Candida albicans [7] came to 4 µg/mL (≈ 8.22 µM); with Candida albicans [8], 8 µg/mL (≈ 16.4 µM); with Candida albicans [9], 16 µg/mL (≈ 32.9 µM); in the experiment with Candida albicans [10], 32 µg/mL (≈ 65.8 µM).
Take `C[C@@H](N(C)Cc1ccc(C#Cc2ccc(F)cc2)cc1)[C@](O)(Cn1cncn1)c1ccc(F)cc1F`: the MIC80 in the experiment on Candida albicans [1] amounted to 0.025 µg/mL (≈ 0.051 µM); with Candida albicans [2], 0.025 µg/mL (≈ 0.051 µM); in the experiment on Candida tropicalis, 0.006 µg/mL (≈ 0.0122 µM); in the experiment on Candida parapsilosis, 0.006 µg/mL (≈ 0.0122 µM); with Nakaseomyces glabratus, 0.01 µg/mL (≈ 0.0204 µM); with Pichia kudriavzevii it was 0.03 µg/mL (≈ 0.0612 µM). Also, the MIC80 in the experiment on Cryptococcus neoformans was 0.013 µg/mL (≈ 0.0265 µM); in the experiment with Aspergillus fumigatus it was 0.1 µg/mL (≈ 0.204 µM); with Candida albicans [3] it was 0.25 µg/mL (≈ 0.51 µM); with Candida albicans [4], 0.25 µg/mL (≈ 0.51 µM); in the experiment with Candida albicans [5], 4 µg/mL (≈ 8.15 µM); in the experiment with Candida albicans [6], 16 µg/mL (≈ 32.6 µM). For the same molecule, the MIC80 came out at 4 µg/mL (≈ 8.15 µM) with Candida albicans [7], 4 µg/mL (≈ 8.15 µM) in the experiment on Candida albicans [8], 8 µg/mL (≈ 16.3 µM) in the experiment on Candida albicans [9] and 16 µg/mL (≈ 32.6 µM) in the experiment on Candida albicans [10].
With `C[C@@H](N(C)Cc1ccc(C#Cc2cc(F)c(Cl)cc2F)cc1)[C@](O)(Cn1cncn1)c1ccc(F)cc1F`, the MIC80 with Candida albicans [1] is 0.013 µg/mL (≈ 0.0239 µM); in the experiment with Candida albicans [2] it was 0.05 µg/mL (≈ 0.0921 µM); with Candida tropicalis, 0.006 µg/mL (≈ 0.0111 µM); with Candida parapsilosis, 0.006 µg/mL (≈ 0.0111 µM); in the experiment with Nakaseomyces glabratus, 0.05 µg/mL (≈ 0.0921 µM); with Pichia kudriavzevii, 0.05 µg/mL (≈ 0.0921 µM). Also, the MIC80 worked out at 0.013 µg/mL (≈ 0.0239 µM) in the experiment on Cryptococcus neoformans; 0.2 µg/mL (≈ 0.368 µM) with Aspergillus fumigatus; 0.5 µg/mL (≈ 0.921 µM) in the experiment on Candida albicans [3]; 0.5 µg/mL (≈ 0.921 µM) in the experiment with Candida albicans [4]; 4 µg/mL (≈ 7.37 µM) in the experiment on Candida albicans [5]; 32 µg/mL (≈ 58.9 µM) in the experiment on Candida albicans [6]. In addition, the MIC80 worked out at 4 µg/mL (≈ 7.37 µM) with Candida albicans [7], 4 µg/mL (≈ 7.37 µM) with Candida albicans [8], 8 µg/mL (≈ 14.7 µM) in the experiment on Candida albicans [9] and 32 µg/mL (≈ 58.9 µM) in the experiment with Candida albicans [10].
